Data taken from publication PMC5524215 (Journal of clinical pharmacology, 2016).
Where two headings read alike, the source gives them in different places. Where a SMILES comes first, the peptide text is derived from it.

Assays:
[1] = Repeated dose pharmacokinetics of intravenous CN-105; assay type: in vivo, human; conditions: for Ratio 2/1: AUCTAU2/AUCTAU1, repeated 1 mg/kg i.v. infusions over 30 min; for Ratio 13/1: AUCTAU13/AUCTAU1, repeated 1 mg/kg i.v. infusions over 30 min; for AUCTAU1 / AUCTAU2 / AUCTAU13: repeated 1 mg/kg i.v. infusions over 30 min; for AUCTAU2: dose 2; for AUCTAU13: dose 13
[2] = in vivo, iv
[3] = rodent, GLP, 5 mg/kg/dose four times per day (20 mg/kg/day) for 14 days; cited from earlier work
[4] = beagle, GLP, 5 mg/kg/dose four times per day (20 mg/kg/day) for 14 days; cited from earlier work
[5] = murine pharmacokinetics; cited from earlier work
[6] = Single ascending dose pharmacokinetics of intravenous CN-105 in healthy adults
[7] = Safety and tolerability in healthy adult subjects; conditions: healthy adults, single 0.01-1.0 mg/kg and repeated 1 mg/kg i.v.
[8] = healthy adults, 1 mg/kg i.v. every 6 h for 72 h

CC(=O)N[C@H](C(=O)N[C@@H](CO)C(=O)N[C@@H](CCCNC(=N)N)C(=O)N[C@@H](CCCNC(=N)N)C(=O)N[C@@H](CCCNC(=N)N)C(N)=O)C(C)C [CN-105] (Ac-VSRRR-NH2; N-terminus and C-terminus assumed)
accumulation on repeated dosing ([1]; 1 mg/kg i.v. every 6 h for 72 h, judged by AUCTAU ratios between time points): no significant accumulation | Ratio 2/1 ([1]; geometric mean): 1.1 | Ratio 2/1 ([1]; mean of subjects): 1.1 | Ratio 2/1 ([1]; median): 1.1 | Ratio 13/1 ([1]; geometric mean): 1.2 | Ratio 13/1 ([1]; mean of subjects): 1.2 | Ratio 13/1 ([1]; median): 1.3 | time at which trough concentrations reached a stable plateau [1, 8]: ≤ 20 h | time to steady state [1, 8]: ≤ 24 h | half-life ([1]; human, plasma, iv, 1 mg/kg): 3.6 h | AUC(0-t) ([1]; human, plasma, iv, 1 mg/kg, AUCTAU1, repeated 1 mg/kg i.v. infusions over 30 min, dose 1, geometric mean): 9540 ng·h/mL | AUCTAU1 ([1]; dose 1, maximum among subjects): 11431.3 | AUCTAU1 ([1]; dose 1, median): 9911.7 | AUCTAU1 ([1]; dose 1, minimum among subjects): 7425.1 | AUCTAU2 ([1]; geometric mean): 10506.5 | AUCTAU2 ([1]; maximum among subjects): 12581.6 | AUCTAU2 ([1]; median): 10448.8 | AUCTAU2 ([1]; minimum among subjects): 8990.5 | AUCTAU13 ([1]; geometric mean): 11328.6 | AUCTAU13 ([1]; maximum among subjects): 14203.2 | AUCTAU13 ([1]; median): 11600.4 | AUCTAU13 ([1]; minimum among subjects): 9382.1 | T1/2 ([2]; 0.01 mg/kg): 2.3 ± 0.5 | T1/2 ([2]; 0.03 mg/kg): 2.4 ± 0.5 | T1/2 ([2]; 0.1 mg/kg): 3.3 ± 0.6 | T1/2 ([2]; 0.3 mg/kg): 3.6 ± .4 | T1/2 ([2]; 1 mg/kg): 3.5 ± 0.3 | tolerability of repeated intravenous administration [3]: well-tolerated | tolerability of repeated intravenous administration [4]: well-tolerated | half-life predicted by animal modeling [5]: 0.5 h | observed half-life at higher doses ([6]; healthy adults, i.v., higher doses): 3.6 h | half-life ([6]; human, plasma, iv): 3.5 h | AUC(0-inf) ([6]; human, plasma, iv, 0.01 mg/kg): 95.9 ± 20.2 ng·h/mL | Cmax ([6]; human, plasma, iv, 0.01 mg/kg): 35.7 ± 10.9 ng/mL | Vd ([6]; human, plasma, iv, 0.01 mg/kg): 29.8 ± 3.2 L | clearance ([6]; human, plasma, iv, 0.01 mg/kg): 150 mL/min | AUC(0-inf) ([6]; human, plasma, iv, 0.03 mg/kg): 281 ± 39.6 ng·h/mL | Cmax ([6]; human, plasma, iv, 0.03 mg/kg): 108 ± 25.5 ng/mL | Vd ([6]; human, plasma, iv, 0.03 mg/kg): 30.4 ± 8 L | clearance ([6]; human, plasma, iv, 0.03 mg/kg): 150 mL/min | AUC(0-inf) ([6]; human, plasma, iv, 0.1 mg/kg): 1130 ± 194 ng·h/mL | Cmax ([6]; human, plasma, iv, 0.1 mg/kg): 408 ± 129 ng/mL | Vd ([6]; human, plasma, iv, 0.1 mg/kg): 38.9 ± 12 L | clearance ([6]; human, plasma, iv, 0.1 mg/kg): 137 mL/min | AUC(0-inf) ([6]; human, plasma, iv, 0.3 mg/kg): 2670 ± 272 ng·h/mL | Cmax ([6]; human, plasma, iv, 0.3 mg/kg): 966 ± 209 ng/mL | Vd ([6]; human, plasma, iv, 0.3 mg/kg): 45.6 ± 11.2 L | clearance ([6]; human, plasma, iv, 0.3 mg/kg): 147 mL/min | AUC(0-inf) ([6]; human, plasma, iv, 1 mg/kg): 9550 ± 1280 ng·h/mL | Cmax ([6]; human, plasma, iv, 1 mg/kg): 3940 ± 507 ng/mL | Vd ([6]; human, plasma, iv, 1 mg/kg): 38.4 ± 8.1 L | clearance ([6]; human, plasma, iv, 1 mg/kg): 128 mL/min | changes in serial ECG, vital signs or clinical laboratory tests [7]: No concerning changes were observed
